Key:
[1] = tested on: mutant CALR Ba/F3 cell lines; assay: 72 h dose response test, CellTiter-Glo cell viability assay; assay type: cell-based, mouse; conditions: 72 h dose response test
PARP cleavage = assay: Western blot time-course, Ba/F3-MPL CALR WT/del79; assay type: cell-based; conditions: 8-hour time point
Procedure: (§1) 2 million Ba/F3-MPL CALR WT or mutant cells were treated with hematoxylin or the equivalent volume of DMSO in a total volume of 15 ml of RPMI media in T75 flasks (Thermal Fisher Scientific). Cells were collected and washed with PBS before being lysed in whole cell lysis buffer containing 20 mM HEPES, 20% glycerol, 50 mM KCl, 400 mM NaCl, 1 mM EDTA, 1 mM DTT, 5 mM Na orthovanadate, 0.5% NP40, 0.1% Tween 20, supplemented with cOmplete™, Mini, EDTA-free Protease Inhibitor Cocktail (Sigma) and PhosSTOP™ (Sigma). Samples were rotated at 4° C. for 20 min prior to centrifugation at […] for 20 min. The soluble fraction of the sample was collected. Protein concentration was quantified by the Bio-Rad Protein Assay (Bio-Rad) according to the manufacturer's instructions and measured by a SpectraMax Microplate Reader (Molecular Devices). Equal amounts of protein were loaded for 8% or 10% SDS-polyacrylamide gel electrophoresis prior to transfer to Amersham™ Protran® nitrocellulose membranes at 35V, 4° C. overnight. Membranes were then blocked by 5% bovine serum albumin fraction V (Sigma) or milk. Mutant calreticulin was detected by a polyclonal rabbit antibody against the mutant specific C-terminal peptide (Myelopro). […]

STAT5 phosphorylation = assay: Western blot time-course, Ba/F3-MPL CALR WT/del79; assay type: cell-based; conditions: 8-hour time point
Procedure: as §1

CALR expression (mRNA) = assay: Real-time PCR analysis of Ba/F3-MPL cell lines; assay type: cell-based, mouse; conditions: 20 uM, 24 h
Procedure: FIG. 19: Real-time PCR analysis of Ba/F3-MPL cell lines after a 24 h treatment with hematoxylin. Ba/F3-MPL CALR WT, CALR homozygous mutant del37/del37 cell line were treated with 20 uM hematoxylin or an equivalent amount of DMSO as control for 24 h before cell collection and RNA extraction. **P<0.01; ***P<0.001
1 million cells from each sample were collected and washed with PBS twice. RNA samples were extracted by using the RNeasy Mini Kit (Qiagen). Taqman® Gene Expression Assays (Mm01545399_m1) was used to quantify the expression of CALR, and the real-time PCR reaction was performed using a 7500 Fast Real-Time PCR machine (Applied Biosystems™). Statistical test was calculated by Graphpad Prism 7.0 using the two-tailed Student's t test.

mutant CALR protein = assay: binding assay (data not shown)
CALR mutant cell lines = assay: cells; conditions: 72 h, read-out: IC50 in mutant cell lines
Procedure: Ba/F3 and UT-7-TPO were plated 5.000 cells/well and 16.000 cells/well into 96-well plates with the desirable concentrations of compounds or cytokines added to a total volume of 100 ul. 72 hours later, the CellTiter-Glo luminescent Cell Viability Assay (Promega) was used to determine the cell viability. The luminescent signal was detected by a VICTOR Multilabel Plate Reader (PerkinElmer). Dose response data was analyzed by Graphpad Prism 7.0.
To further explore the chemical space of the compound, a few hematoxylin analogues were also tested (FIGS. 15 to 17). […] The compounds Protosappanin B (A-4) and RJ002 (B-2) were also tested. […] As a comparison, the clinically used chemotherapeutic drugs hydroxyurea and ruxolitinib were also tested in the cell models.

[2] = tested on: UT-7-TPO mutant cell lines; assay: 72 h dose response test, CellTiter-Glo cell viability assay; assay type: cell-based; conditions: UT-7-TPO cell lines, mutant vs wild-type
Excerpt: Among 140.000 structures, a list of compounds with the highest binding energy and specificity towards calreticulin was generated. Relying on compounds that were either commercially available or available from the DTP Databases of the National Cancer Institute (NCI), a docking compound library including 41 compounds was assembled, […] CALR cell lines (FIGS. 5 and 6). […] Two hits were identified as preferentially inhibiting mutant CALR cell line growth. […] Therefore, hematoxylin and derivatives thereof were used for further testing.

[3] = tested on: Ba/F3-MPL cell lines carrying C-terminal truncated CALR; assay: cytotoxicity assay in cell lines with C-terminal truncated CALR; assay type: cell-based, mouse; conditions: truncated CALR mutations vs disease frameshift
Procedure: In order to further confirm the selective cytotoxicity of hematoxylin in CALR mutant cells, two-color competition assays were performed in both Ba/F3 and UT-7-TPO cells to assess the long-term efficacy of the compound (FIG. 9). […] The differential killing effect of hematoxylin could also be reproduced in the UT-7-TPO cell line. […] This reading frame encounters a stop codon shortly after the mutation and causes a truncation at the CALR C-terminus (FIG. 12). […] Moreover, CALR KO Ba/F3-MPL cell lines were tested for hematoxylin sensitivity.

## Oc1cc2c(cc1O)[C@@H]1c3ccc(O)c(O)c3OC[C@]1(O)C2 [hematoxylin, Hematoxylin]
[1]
  reduction of IC50 in mutant CALR Ba/F3 cell lines compared with the wild-type cell line: 3-5 fold
PARP cleavage
  PARP cleavage (apoptotic marker): upregulation
STAT5 phosphorylation
  STAT5 phosphorylation: decrease
CALR expression (mRNA)
  magnitude of change (up-regulation) of wild-type and mutant CALR mRNA expression: around 1.3 fold
Mutant CALR protein
  binding to mutant CALR protein: bound
CALR mutant cell lines
  IC50: 2600 nM
[2]
  hypersensitivity of mutant cell lines to the compound: hypersensitivity of mutant cell lines to the compound could be reproduced
[3]
  hypersensitivity towards compound treatment: did not show hypersensitivity
